# Target: T1, hSlo3+hLRRC52 (Homo sapiens, UniProt A8MYU2)
# T1 sequence (A8MYU2 1-1149): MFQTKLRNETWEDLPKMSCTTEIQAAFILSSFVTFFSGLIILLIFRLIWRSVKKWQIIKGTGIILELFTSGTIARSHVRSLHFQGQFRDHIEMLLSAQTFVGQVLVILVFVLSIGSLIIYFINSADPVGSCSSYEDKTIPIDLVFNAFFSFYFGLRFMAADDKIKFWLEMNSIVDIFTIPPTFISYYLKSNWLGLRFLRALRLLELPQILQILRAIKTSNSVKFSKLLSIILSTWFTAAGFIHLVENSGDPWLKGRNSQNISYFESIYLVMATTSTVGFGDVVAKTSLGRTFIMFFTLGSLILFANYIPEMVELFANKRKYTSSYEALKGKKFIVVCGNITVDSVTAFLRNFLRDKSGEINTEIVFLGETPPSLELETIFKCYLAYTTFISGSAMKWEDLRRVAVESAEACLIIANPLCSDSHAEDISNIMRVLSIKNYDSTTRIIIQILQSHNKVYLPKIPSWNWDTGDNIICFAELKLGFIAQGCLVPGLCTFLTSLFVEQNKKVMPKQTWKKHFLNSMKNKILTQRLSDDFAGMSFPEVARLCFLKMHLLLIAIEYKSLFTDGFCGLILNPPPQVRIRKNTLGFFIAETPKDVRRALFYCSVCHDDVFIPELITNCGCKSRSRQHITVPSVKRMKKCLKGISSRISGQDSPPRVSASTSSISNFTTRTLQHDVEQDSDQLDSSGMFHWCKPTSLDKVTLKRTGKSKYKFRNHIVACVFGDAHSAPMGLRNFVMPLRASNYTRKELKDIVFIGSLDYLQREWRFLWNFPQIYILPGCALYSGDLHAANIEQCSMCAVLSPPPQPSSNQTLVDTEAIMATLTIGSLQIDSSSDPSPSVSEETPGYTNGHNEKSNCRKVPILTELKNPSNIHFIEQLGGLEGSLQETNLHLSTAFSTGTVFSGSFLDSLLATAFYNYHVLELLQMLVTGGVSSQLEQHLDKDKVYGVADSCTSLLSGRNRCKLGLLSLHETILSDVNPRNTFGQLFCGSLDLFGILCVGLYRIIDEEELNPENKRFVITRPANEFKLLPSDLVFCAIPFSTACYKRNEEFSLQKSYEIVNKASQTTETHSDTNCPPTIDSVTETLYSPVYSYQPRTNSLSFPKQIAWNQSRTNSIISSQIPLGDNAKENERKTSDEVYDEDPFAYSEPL
# T1 sequence (Q8N7C0 24-313 partner): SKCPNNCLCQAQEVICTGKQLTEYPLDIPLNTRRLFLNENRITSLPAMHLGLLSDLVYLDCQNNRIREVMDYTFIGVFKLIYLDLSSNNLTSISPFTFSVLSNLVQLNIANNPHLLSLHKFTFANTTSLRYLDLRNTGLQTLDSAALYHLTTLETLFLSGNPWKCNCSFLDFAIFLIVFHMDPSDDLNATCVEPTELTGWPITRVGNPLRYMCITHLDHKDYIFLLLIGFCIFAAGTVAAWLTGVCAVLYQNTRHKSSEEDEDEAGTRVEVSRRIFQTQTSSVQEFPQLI
# Assay: whole-cell patch clamp, HEK293, voltage ramp
# Assay type: cell-based
# Settings: HEK293, read-out: % inhibition at 20 mM
smiles,measurement,value
CC[N+](CC)(CC)CC [TEA],inhibition at 20000 µM,41 ± 5.19%
